Data: US20240415793A1, “Neuroprotective composition comprising pyruvate and citrate” (N.V. Nutricia, priority 2022, published 2024)

Legend:
[1] = test system: neuroglial cell cultures; experiment: Seahorse assay (OCR/ECAR), acute effects under seizure- and ketogenic diet-like conditions; assay type: cell-based, rat; details: HBSS, 0.1 mM Mg2+, 1 mM glucose, 500 μM bHB, 1 mM pyruvate, 1 mM citrate as added, vs control medium
Experimental: (§1) The oxygen consumption rates (OCRs) and extracellular acidification rates (ECARs) of cells seeded in 96-well plates were monitored in real time at 37° C. in unbuffered Hanks Balanced Salt Solution (HBSS). The OCRs represent foremost mitochondrial respiration, and to a minor extent non-mitochondrial respiration. The ECARs relate foremost to the acidification of the medium with lactate produced through glycolysis and secreted by the cells into the medium (Table 1).
(§2) During the Seahorse run, both the OCRs and ECARs were measured simultaneously at baseline and following the injection of compounds by the Seahorse instrument (Table 1). HBSS was supplemented with glucose from the start and no glucose was injected through the Seahorse instruments. Measurements were repeated three times at baseline and three times after each compound injection.
(§3) After the initial baseline measurement, oligomycin (OM) was injected. OM blocks mitochondrial ATP synthase (complex V) and therefore decreases mitochondrial respiration. The OCRs after OM injection are due to the mitochondrial proton leak. They enable to determine whether the test nutrients impact the proton leak. The difference in OCRs at baseline and after OM injection is the amount of oxygen used for mitochondrial ATP synthesis at baseline. From this difference in OCR, the mitochondrial ATP production rates are calculated.
After OM, uncoupling agent carbonyl cyanide-p- trifluoromethoxyphenyl-hydrazon [FCCP] was injected which collapses the proton gradient across the inner mitochondrial membrane established during respiration and required for ATP synthesis. The cells attempt to restore the proton gradient following FCCP injection by maximizing respiration. The OCRs measured after FCCP injection therefore represent the maximal respiratory capacity of the mitochondria in the sample and enable to determine whether test nutrients impact the maximal respiratory capacity of the mitochondria.
Finally, Antimycin A, a complex III inhibitor, and Rotenone, a complex I inhibitor, were co-injected, both blocking the respiratory chain at different sites to entirely shut down mitochondrial respiration and determine the non-mitochondrial respiration. The latter is necessary to correct all OCRs and obtain the mitochondrial OCRs.
The ECARs were measured simultaneously at baseline and after OM and FCCP injection. The glycolytic ATP production was calculated from the baseline ECARs. The subsequent injection of OM pushed the cells to maximize their glycolytic ATP production to compensate for the loss in mitochondrial ATP production inflicted by OM. The further addition of FCCP drove mitochondrial respiration to a maximum and this eventually led to a further increase in glycolytic rates providing pyruvate into the TCA cycle to sustain maximal respiration. Therefore, the ECARs after FCCP injection were used to determine the maximum glycolytic capacity of the cells.
To assess the effect of citrate and pyruvate under seizure- and ketogenic diet-like conditions a batch of cells was switched one hour prior to the Seahorse run to HBSS medium (which is a nutrient deprived culture medium) containing low (1 mM) glucose, 500 μM bHB and low (0.1 mM) Mg^2+, 1 mM citrate or 1 mM pyruvate (FIG. 6). The ketone p-hydroxybutyrate (bHB) was included during the Seahorse run at a concentration of 500 μM to mimic the nutrient environment of a ketogenic diet. This bHB concentration corresponds to the circulating bHB concentration of a mild ketogenic diet such as the Modified Atkins Diet.
For the Seahorse assay that was run under seizure- and ketogenic diet like-conditions the cells were then incubated in HBSS medium containing low (0.1 mM) Mg^2+ and one of the following additions: • i) 1 mM glucose (control medium), • ii) 500 μM bHB, • iii) 500 μM bHB plus 1 mM citrate, • iv) 500 μM bHB plus 1 mM pyruvate or • v) 500 μM bHB with 1 mM citrate plus 1 mM pyruvate. […]

[2] = test system: primary rat neuronal-glial cell cultures; experiment: Seahorse assay (OCR/ECAR), acute 1 h nutrient pre-incubation, resting or seizure-like conditions; assay type: cell-based
[3] = test system: primary mouse neuroglial cultures; experiment: Cell death by high content imaging (Hoechst/NeuN nuclear shrinkage) after chronic hyperstimulation; assay type: cell-based; details: 1 mM; for dead neuron count (neuron death): FIG. 10F/11F
Experimental: To determine whether pyruvate and citrate protect neurons and glial cells from cell death induced by chronic electrical hyperstimulation. To assess protection from cell death induced by repeated hyperstimulation, primary mouse neuroglial cultures were assayed. Neuroglial cell cultures were prepared and grown until DIV14 as described above. From DIV14 until DIV17 they were switched to NBM containing B27, low (2.5 mM) glucose, and low (0.1 mM) Mg^2+ or high (0.8 mM) Mg^2+. Incubation in low (0.1 mM) Mg^2+ medium increases the neuronal firing rates, thus creating a state of chronic hyperstimulation. The test nutrients (pyruvate or citrate) were supplied through the medium from DIV14 until DIV17. On DIV17, the cell nuclei were stained with the Hoechst dye and co-immunolabelled for NeuN, a protein found only in the nuclei of neurons. The neuronal and non-neuronal cell nuclei were scored for nuclear shrinkage, a hallmark of cell death, by high content imaging.
To assess cell death by high content imaging the cells were fixed on DIV17 in 1% formaldehyde, permeabilized with ethanol and incubated with a rabbit polyclonal IgG antibody against NeuN, a neuron-specific protein localized to the nucleus, followed by detection with a secondary anti-rabbit IgG antibody linked to a red fluorescent label. Neuronal and non-neuronal cell nuclei were then counterstained with the blue fluorescent nuclear dye Hoechst. The nuclei were counted by a high content imager based on signal intensity and size. A cut-off value was applied to exclude objects of low signal intensity considered noise. Then, cut-off values were applied to exclude objects with an area below 30 μM^2 considered cell debris and objects with an area above 300 μM^2 considered cell clumps. A boundary of 60 μM^2 was set to distinguish between nuclei from alive and dead cells. Objects areas of 30 μM^2 to 60 μM^2 were counted as nuclei from dead cells, while object areas of 60 μM^2 to 300 μM^2 were counted as nuclei from alive cells. The counting was done at 20-fold magnification on a fixed number of optical fields per well. The counts of nuclei from dead neurons or dead cells were related to the number of alive neurons or alive cells, respectively, in the same well.
Neuroglial cell cultures were supplemented with 1 mM citrate from DIV14 until DIV17. On DIV17, total cell death and neuron-specific cell death were quantified by high content imaging. The total number of Hoechst positive objects or NeuN positive objects prior to applying cut-off values for the signal intensity and the area size was equal between the different groups (FIG. 10 A, D).

[4] = test system: primary rat neuronal-glial cell cultures; experiment: Seahorse assay (OCR/ECAR), acute 1 h nutrient pre-incubation, resting or seizure-like conditions; assay type: cell-based; details: 0.25 mM and 1 mM pyruvate in low Mg2+ medium vs low Mg2+ medium without pyruvate
Experimental: A Seahorse assay was performed on primary rat neuronal-glial cell cultures to determine the impact of pyruvate and citric acid on glycolytic rates and lactate delivery, mitochondrial respiration and total (glycolytic and mitochondrial) ATP production.
Rat cortical cells were isolated from embryonic day 18 embryos using a combination of enzymatic and mechanical dissociation of brain cortical rat tissue. Immediately after dissociation, the cells were seeded at a density of 500′000 cells per mL in 96-well plates and grown at 37° C. for two weeks from day in vitro (DIV) 0 until DIV14 in Neurobasal medium supplemented with 2% (v/v) B27, 0.8 mM Magnesium (Mg2+), 25 mM glucose and 1% (v/v) Penicillin/Streptomycin. During this time neuronal axons grew out and formed synaptic contacts. In addition, glial cells, foremost astrocytes, grew and formed contacts with neurons. The incubation in 25 mM glucose accelerated the differentiation and network growth of neurons.
From DIV14 until DIV17, the cells were incubated in Neurobasal medium supplemented with 2% (v/v) B27, 0.8 mM Mg2+, 5 mM glucose and 1% (v/v) Penicillin/Streptomycin. The switch from high to low glucose was done to approach the low intracerebral glucose concentration of the human brain and create a more physiological metabolic environment.
The switch from 5 mM to 1 mM glucose matched the glucose concentrations in the human brain. Meanwhile the switch from high (0.8 mM) to low (0.1 mM) Mg^2+ increases the electrical firing frequency of neurons because Mg2+ is an inhibitor of excitatory NMDA-type ionotropic glutamate receptors, which account for most of the neuronal firing in this cell culture model. The increase in neuronal firing caused by incubation in 0.1 mM Mg^2+ increases the energy production of neurons and glial cells as reflected in the increase in basal respiration (FIG. 1B and E). After 1 hour of pre-incubation in the Seahorse medium containing the nutrients, the oxygen consumption rate [OCRs] and extracellular acidification rate [ECARs] of the neuroglial culture were measured in the Seahorse assay.
as §1, §2, §3
After OM, uncoupling agent carbonyl cyanide-p- trifluoromethoxyphenyl-hydrazon [FCCP] was injected which collapses the proton gradient across the inner mitochondrial membrane established during respiration and required for ATP synthesis. The cells attempt to restore the proton gradient following FCCP injection by maximizing respiration. […]

Structure (SMILES)	change in basal glycolytic ATP production ([1]; FIG. 6A)	change in total (mitochondrial and glycolytic) ATP production ([1]; FIG. 6A)	change in basal (mitochondrial) respiration ([1]; FIG. 6B)	change in FCCP-driven maximal respiratory capacity ([1]; FIG. 6D)	change in basal glycolysis ([1]; FIG. 7A)	change in FCCP-driven maximal glycolytic capacity ([1]; FIG. 7C)	increase in total (mitochondrial and glycolytic) ATP production rates ([2]; 0.25 mM and 1 mM pyruvate in low (0.1 mM) Mg2+ medium vs low Mg2+ medium without pyruvate, FIG. 1A)	increase in FCCP-driven maximal respiratory capacity ([2]; 0.25 mM and 1 mM pyruvate in low Mg2+ medium vs low Mg2+ medium without pyruvate, FIG. 1D)	increase in dead cell counts from high Mg2+ to low Mg2+ medium ([3]; DIV14-DIV17, chronic hyperstimulation, FIG. 10C/11C) [%]	dead cell counts ([3]; DIV14-DIV17, high (0.8 mM) Mg2+ medium, FIG. 10C/11C) [%]	dead neuron count (neuron death) ([3]; DIV14-DIV17, high Mg2+ medium) [%]	dead cell counts ([3]; DIV14-DIV17, low (0.1 mM) Mg2+ medium, FIG. 10C/11C) [%]	dead neuron count (neuron death) ([3]; DIV14-DIV17, low Mg2+ medium) [%]	increase in basal respiration ([4]; FIG. 1B)	increase in oligomycin-induced proton leak ([4]; FIG. 1C)	increase in glycolytic rates at baseline ([4]; FIG. 2A)	increase in glycolytic rates after FCCP injection ([4]; FIG. 2C)
CC(O)CC(=O)O (centres unmarked) [bHB, b-hydroxybutyrate]	did not alter	did not impact	did not impact	did not impact	did not alter	did not alter											
CC(=O)C(=O)O [pyruvate]							400-500%	200-250%	~1	~19	−1.5	~20	~1.4	30-40%	10-15%	15-20%	20-30%
